Results on 8 test systems are retold here after the supplement of paper PMC6045584.

Compound in one test: C=CCn1c(=O)c2cnc(Nc3ccc(N4CCN(C)CC4)cc3)nc2n1-c1cccc(C(C)(C)O)n1 [MK-1775]
Briefly: surviving fraction relative to DMSO-only wells; higher = less growth inhibition. Particulars: exposure time: 5 days. The method, boiled down: (§1)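 Inhibitors were tested at 0.5, 1, 5, 10, 50, 100, 500 and 1000 nM, applied continuously for five days beginning 24 hours after log-phase tumour cells were seeded at 250–500 per well in 384-well plates. CellTiter-Glo luminescence served as the viability measure, expressed as surviving fraction against the median of DMSO-only wells. Each line, screened three times, was kept only with replicate Pearson r >0.7 and median Z' >0.3.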

Compound in the next test: Cc1c(N)nc([C@H](CC(N)=O)NC[C@H](N)C(N)=O)nc1C(=O)N[C@H](C(=O)N[C@H](C)[C@@H](O)[C@H](C)C(=O)N[C@H](C(=O)NCCc1nc(-c2nc(C(=O)NCCC[S+](C)C)cs2)cs1)[C@@H](C)O)[C@@H](OC1OC(CO)C(O)C(O)C1OC1OC(CO)C(O)C(OC(N)=O)C1O)c1cnc[nH]1 [BLEOMYCIN]
Described as above. Particulars: exposure time: 5 days. The method, boiled down: as §1

± gives the standard deviation of the averaged measurements.

On to COLO320DM LARGE INTESTINE, for which the surviving fraction amounted to 1.09 ± 0.063 with MK-1775 (0.5 nM); 1.1 ± 0.12 with MK-1775 (1 nM); 1.08 ± 0.12 with MK-1775 (5 nM); 1.12 ± 0.033 with MK-1775 (10 nM); 0.834 ± 0.054 with MK-1775 (50 nM); 0.592 ± 0.16 with MK-1775 (100 nM). The surviving fraction with MK-1775 (500 nM) came to 0.139 ± 0.011; in the test with MK-1775 (1000 nM), 0.131 ± 0.014; with BLEOMYCIN (0.5 nM), 1.09 ± 0.042; with BLEOMYCIN (1 nM) it was 0.972 ± 0.025; with BLEOMYCIN (5 nM), 1.03 ± 0.058; with BLEOMYCIN (10 nM), 1.04 ± 0.099. Besides, the surviving fraction amounted to 1.15 ± 0.22 in the test with BLEOMYCIN (50 nM), 0.89 ± 0.052 with BLEOMYCIN (100 nM), 0.868 ± 0.057 in the test with BLEOMYCIN (500 nM) and 0.675 ± 0.024 in the test with BLEOMYCIN (1000 nM).
Regarding HCC1806 BREAST, the surviving fraction is 1.05 ± 0.047 with MK-1775 (0.5 nM); 0.996 ± 0.076 with MK-1775 (1 nM); 1.13 ± 0.032 with MK-1775 (5 nM); 1.02 ± 0.14 in the test with MK-1775 (10 nM); 0.631 ± 0.082 with MK-1775 (50 nM); 0.303 ± 0.036 with MK-1775 (100 nM). Also, the surviving fraction in the test with MK-1775 (500 nM) was determined as 0.049 ± 0.0061; with MK-1775 (1000 nM) it was 0.0403 ± 0.0015; with BLEOMYCIN (0.5 nM) it was 0.771 ± 0.058; with BLEOMYCIN (1 nM) it was 0.824 ± 0.1; with BLEOMYCIN (5 nM) it was 0.682 ± 0.035; with BLEOMYCIN (10 nM) it was 0.56 ± 0.0059. Moreover, the surviving fraction was found to be 0.397 ± 0.0062 with BLEOMYCIN (50 nM), 0.2757 ± 0.0015 with BLEOMYCIN (100 nM), 0.108 ± 0.0021 in the test with BLEOMYCIN (500 nM) and 0.0743 ± 0.0095 with BLEOMYCIN (1000 nM).
With HSSYII SYNOVIAL, the surviving fraction came to 1.05 ± 0.034 in the test with MK-1775 (0.5 nM); 1 ± 0.03 with MK-1775 (1 nM); 1.002 ± 0.0055 with MK-1775 (5 nM); 0.884 ± 0.012 with MK-1775 (10 nM); 0.628 ± 0.035 with MK-1775 (50 nM); 0.12 ± 0.0027 with MK-1775 (100 nM). The surviving fraction was 0.147 ± 0.064 with MK-1775 (500 nM); 0.0442 ± 0.0045 in the test with MK-1775 (1000 nM); 0.797 ± 0.068 with BLEOMYCIN (0.5 nM); 0.872 ± 0.045 with BLEOMYCIN (1 nM); 0.768 ± 0.045 with BLEOMYCIN (5 nM); 0.788 ± 0.017 with BLEOMYCIN (10 nM). Further, the surviving fraction was determined as 0.6562 ± 0.0056 with BLEOMYCIN (50 nM), 0.572 ± 0.029 with BLEOMYCIN (100 nM), 0.224 ± 0.014 with BLEOMYCIN (500 nM) and 0.14 ± 0.0027 in the test with BLEOMYCIN (1000 nM).
As for MFM223 BREAST, the surviving fraction is 1.16 ± 0.057 in the test with MK-1775 (0.5 nM); 1.14 ± 0.04 in the test with MK-1775 (1 nM); 1.06 ± 0.067 in the test with MK-1775 (5 nM); 1.14 ± 0.036 with MK-1775 (10 nM); 0.958 ± 0.045 with MK-1775 (50 nM); 0.545 ± 0.05 with MK-1775 (100 nM). The surviving fraction was found to be 0.161 ± 0.0064 with MK-1775 (500 nM); 0.192 ± 0.02 with MK-1775 (1000 nM); 0.719 ± 0.028 with BLEOMYCIN (0.5 nM); 0.784 ± 0.13 with BLEOMYCIN (1 nM); 0.702 ± 0.076 with BLEOMYCIN (5 nM); 0.703 ± 0.032 with BLEOMYCIN (10 nM). For the same test system, the surviving fraction with BLEOMYCIN (50 nM) amounted to 0.961 ± 0.049; with BLEOMYCIN (100 nM), 0.923 ± 0.0095; with BLEOMYCIN (500 nM), 0.789 ± 0.047; in the test with BLEOMYCIN (1000 nM) it was 0.681 ± 0.047.
MDAMB468 BREAST: the surviving fraction is 1.06 ± 0.041 with MK-1775 (0.5 nM); 1.05 ± 0.049 in the test with MK-1775 (1 nM); 1.07 ± 0.089 with MK-1775 (5 nM); 1.02 ± 0.043 in the test with MK-1775 (10 nM); 1.12 ± 0.04 with MK-1775 (50 nM); 0.985 ± 0.029 in the test with MK-1775 (100 nM). The surviving fraction with MK-1775 (500 nM) worked out at 0.259 ± 0.026; with MK-1775 (1000 nM) it was 0.0773 ± 0.0029; with BLEOMYCIN (0.5 nM), 0.804 ± 0.036; with BLEOMYCIN (1 nM), 0.863 ± 0.058; with BLEOMYCIN (5 nM) it was 0.912 ± 0.044; in the test with BLEOMYCIN (10 nM) it was 0.932 ± 0.039. The surviving fraction is 1.09 ± 0.027 in the test with BLEOMYCIN (50 nM), 0.989 ± 0.049 with BLEOMYCIN (100 nM), 0.768 ± 0.035 with BLEOMYCIN (500 nM) and 0.577 ± 0.026 with BLEOMYCIN (1000 nM).
Turning to HCC78 LUNG, the surviving fraction with MK-1775 (0.5 nM) is 0.883 ± 0.12; with MK-1775 (1 nM), 0.875 ± 0.14; in the test with MK-1775 (5 nM), 1.07 ± 0.32; with MK-1775 (10 nM), 1.02 ± 0.13; in the test with MK-1775 (50 nM) it was 0.827 ± 0.15; with MK-1775 (100 nM), 0.839 ± 0.08. Also, the surviving fraction with MK-1775 (500 nM) was 0.105 ± 0.022; with MK-1775 (1000 nM) it was 0.0803 ± 0.02; with BLEOMYCIN (0.5 nM), 0.839 ± 0.12; with BLEOMYCIN (1 nM), 0.932 ± 0.32; in the test with BLEOMYCIN (5 nM), 0.892 ± 0.2; with BLEOMYCIN (10 nM), 0.774 ± 0.39. Moreover, the surviving fraction in the test with BLEOMYCIN (50 nM) is 0.376 ± 0.14; with BLEOMYCIN (100 nM), 0.499 ± 0.13; in the test with BLEOMYCIN (500 nM), 0.202 ± 0.075; with BLEOMYCIN (1000 nM), 0.0983 ± 0.032.
Turning to NCIH441 LUNG, the surviving fraction with MK-1775 (0.5 nM) is 1.11 ± 0.085; with MK-1775 (1 nM), 1.04 ± 0.031; with MK-1775 (5 nM), 1.03 ± 0.029; with MK-1775 (10 nM), 0.986 ± 0.049; in the test with MK-1775 (50 nM), 0.944 ± 0.065; with MK-1775 (100 nM), 0.794 ± 0.044. The surviving fraction is 0.428 ± 0.057 in the test with MK-1775 (500 nM); 0.369 ± 0.044 with MK-1775 (1000 nM); 0.956 ± 0.093 with BLEOMYCIN (0.5 nM); 1.01 ± 0.05 in the test with BLEOMYCIN (1 nM); 0.919 ± 0.045 in the test with BLEOMYCIN (5 nM); 0.887 ± 0.063 with BLEOMYCIN (10 nM). For the same test system, the surviving fraction was 0.838 ± 0.066 in the test with BLEOMYCIN (50 nM), 0.857 ± 0.015 in the test with BLEOMYCIN (100 nM), 0.762 ± 0.017 with BLEOMYCIN (500 nM) and 0.52 ± 0.028 in the test with BLEOMYCIN (1000 nM).
Take CADOES1 SOFT TISSUE: the surviving fraction with MK-1775 (0.5 nM) worked out at 0.978 ± 0.014; with MK-1775 (1 nM) it was 0.929 ± 0.11; with MK-1775 (5 nM), 0.95 ± 0.036; with MK-1775 (10 nM), 0.887 ± 0.049; with MK-1775 (50 nM) it was 0.92 ± 0.094; with MK-1775 (100 nM), 0.832 ± 0.065. Further, the surviving fraction was 0.444 ± 0.034 with MK-1775 (500 nM); 0.218 ± 0.017 in the test with MK-1775 (1000 nM); 0.943 ± 0.079 in the test with BLEOMYCIN (0.5 nM); 0.967 ± 0.089 with BLEOMYCIN (1 nM); 0.789 ± 0.12 in the test with BLEOMYCIN (5 nM); 0.776 ± 0.067 with BLEOMYCIN (10 nM). Moreover, the surviving fraction was 0.683 ± 0.051 with BLEOMYCIN (50 nM), 0.503 ± 0.14 with BLEOMYCIN (100 nM), 0.285 ± 0.019 in the test with BLEOMYCIN (500 nM) and 0.116 ± 0.017 with BLEOMYCIN (1000 nM).
